By IC50 is commonly meant the concentration needed to halve the response being measured.

The values below come from PubChem BioAssay AID504426 (Johns Hopkins Ion Channel Center, 2011).

Calls of active or inactive are those of the source.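 Rule for the calls: active = channel current reduced at one or more tested doses, with a fitted dose-response curve; inactive = no curve fitted, or no current reduction at any dose.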

In the assay the target is Voltage-dependent T-type calcium channel subunit alpha-1H (Homo sapiens) (UniProt O95180). As to the kind of experiment: concentration-dependent block of Cav3.2 currents – automated patch clamp, HEK293 cells, mechanism study, dose response (AID 504426). Particulars: Cav3.2-HEK293, automated patch clamp peak current; for current change, negative = inhibition: at 30 µM (top of the series). (The patch-clamp technique gives a direct electrical read-out from membranes.)
Chain of Voltage-dependent T-type calcium channel subunit alpha-1H (Homo sapiens) (O95180 whole entry, looked up): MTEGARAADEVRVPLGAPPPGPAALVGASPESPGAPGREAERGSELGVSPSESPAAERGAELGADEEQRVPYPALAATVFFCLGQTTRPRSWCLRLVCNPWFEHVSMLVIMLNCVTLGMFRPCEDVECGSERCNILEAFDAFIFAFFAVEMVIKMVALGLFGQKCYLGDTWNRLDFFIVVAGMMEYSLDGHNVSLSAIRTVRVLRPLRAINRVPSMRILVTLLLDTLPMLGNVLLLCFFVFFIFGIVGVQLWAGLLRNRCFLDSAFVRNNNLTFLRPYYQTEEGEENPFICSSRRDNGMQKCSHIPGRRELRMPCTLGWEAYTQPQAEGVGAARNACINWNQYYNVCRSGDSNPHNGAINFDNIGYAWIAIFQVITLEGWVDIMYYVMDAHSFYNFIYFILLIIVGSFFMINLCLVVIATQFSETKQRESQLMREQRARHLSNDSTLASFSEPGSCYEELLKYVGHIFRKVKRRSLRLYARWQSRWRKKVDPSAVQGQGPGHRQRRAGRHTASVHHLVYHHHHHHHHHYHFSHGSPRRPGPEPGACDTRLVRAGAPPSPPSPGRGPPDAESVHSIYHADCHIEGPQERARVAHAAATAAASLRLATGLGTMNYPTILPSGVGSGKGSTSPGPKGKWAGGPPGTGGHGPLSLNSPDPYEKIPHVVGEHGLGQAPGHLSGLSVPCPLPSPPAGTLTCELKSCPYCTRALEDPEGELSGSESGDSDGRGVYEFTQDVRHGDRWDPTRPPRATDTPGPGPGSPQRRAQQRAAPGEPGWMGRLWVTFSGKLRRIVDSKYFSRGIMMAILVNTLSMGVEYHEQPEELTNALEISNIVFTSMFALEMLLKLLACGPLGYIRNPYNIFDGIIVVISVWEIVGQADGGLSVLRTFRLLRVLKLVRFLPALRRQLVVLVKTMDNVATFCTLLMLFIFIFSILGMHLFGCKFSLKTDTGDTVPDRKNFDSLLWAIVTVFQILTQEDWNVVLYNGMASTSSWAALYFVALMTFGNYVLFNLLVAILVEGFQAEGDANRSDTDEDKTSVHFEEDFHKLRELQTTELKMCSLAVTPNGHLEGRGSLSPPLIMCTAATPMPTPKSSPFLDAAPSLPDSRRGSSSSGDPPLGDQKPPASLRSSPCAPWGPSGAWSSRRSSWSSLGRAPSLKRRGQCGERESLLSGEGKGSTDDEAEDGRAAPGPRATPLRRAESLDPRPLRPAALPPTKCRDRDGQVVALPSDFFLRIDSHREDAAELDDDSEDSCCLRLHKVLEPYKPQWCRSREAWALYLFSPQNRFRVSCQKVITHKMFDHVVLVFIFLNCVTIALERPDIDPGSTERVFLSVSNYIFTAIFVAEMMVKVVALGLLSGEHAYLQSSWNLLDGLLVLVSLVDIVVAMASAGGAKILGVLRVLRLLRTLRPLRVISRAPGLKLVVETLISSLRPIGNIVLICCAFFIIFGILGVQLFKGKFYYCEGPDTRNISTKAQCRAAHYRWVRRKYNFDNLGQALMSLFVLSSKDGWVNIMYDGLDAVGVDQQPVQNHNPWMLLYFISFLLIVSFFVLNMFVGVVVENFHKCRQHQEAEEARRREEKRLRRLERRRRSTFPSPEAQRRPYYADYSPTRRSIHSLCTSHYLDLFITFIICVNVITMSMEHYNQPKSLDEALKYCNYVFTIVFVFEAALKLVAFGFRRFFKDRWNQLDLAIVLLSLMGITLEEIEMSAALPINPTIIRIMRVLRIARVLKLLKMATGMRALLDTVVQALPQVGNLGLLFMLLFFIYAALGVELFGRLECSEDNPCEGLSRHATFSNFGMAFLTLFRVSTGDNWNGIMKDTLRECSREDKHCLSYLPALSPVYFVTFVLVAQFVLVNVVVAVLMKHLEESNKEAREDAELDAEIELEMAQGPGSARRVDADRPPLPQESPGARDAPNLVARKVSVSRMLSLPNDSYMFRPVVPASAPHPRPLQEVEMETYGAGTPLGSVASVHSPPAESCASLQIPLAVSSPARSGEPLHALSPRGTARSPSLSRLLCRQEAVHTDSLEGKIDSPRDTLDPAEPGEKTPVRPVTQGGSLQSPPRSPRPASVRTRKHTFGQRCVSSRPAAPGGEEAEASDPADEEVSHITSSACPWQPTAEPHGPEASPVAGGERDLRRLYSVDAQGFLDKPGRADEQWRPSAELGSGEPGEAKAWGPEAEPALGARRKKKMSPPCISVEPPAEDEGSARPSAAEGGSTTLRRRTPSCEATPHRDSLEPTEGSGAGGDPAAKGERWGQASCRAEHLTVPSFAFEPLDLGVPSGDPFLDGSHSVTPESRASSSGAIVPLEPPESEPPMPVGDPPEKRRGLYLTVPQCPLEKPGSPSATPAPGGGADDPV

As for `Cc1ccc(-c2nnc(NC(=O)COc3ccc(F)cc3Cl)o2)cc1C`, the “current change, negative = inhibition” value is “inactive”.

With `CC(C)(C)CCN1C[C@@H]2C(CNC(=O)c3cc(Cl)cc(Cl)c3)[C@@H]2C1` (some centres undefined), the IC50 was 0.31 µM. Still for that read-out and setting: the value for `O=C(COc1ccc(F)cc1Cl)Nc1nnc(-c2ccc(F)c(F)c2)o1` was 13.5 µM. For the compound `CC(C)(C)Cc1nnc(NC(=O)COc2ccc(Cl)cc2Cl)o1`, the “current change, negative = inhibition” value is “inactive”.
